Results published in PubChem BioAssay (NCI).
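Each compound was tested at five concentrations against cells in 96-well plates for 48 hours. GI50 = concentration required for 50% inhibition of growth. Definition used: TGI = concentration required for complete inhibition of growth.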

Columns and labels:
Assay in all cases: NCI tumour cell line growth inhibition, 48 h
SK-MEL-2 melanoma = tested on: SK-MEL-2 melanoma
HS 578T breast = tested on: HS 578T breast
SW-620 colon = tested on: SW-620 colon
SNB-75 CNS = tested on: SNB-75 CNS
SK-OV-3 ovarian = tested on: SK-OV-3 ovarian
SF-295 CNS = tested on: SF-295 CNS
UACC-62 melanoma = tested on: UACC-62 melanoma
SK-MEL-5 melanoma = tested on: SK-MEL-5 melanoma
COLO 205 colon = tested on: COLO 205 colon
RXF 393 renal = tested on: RXF 393 renal

Compound | GI50 (SK-MEL-2 melanoma) | TGI (SK-MEL-2 melanoma) | GI50 (HS 578T breast) | TGI (HS 578T breast) | GI50 (SW-620 colon) | TGI (SW-620 colon) | GI50 (SNB-75 CNS) | TGI (SNB-75 CNS) | GI50 (SK-OV-3 ovarian) | TGI (SK-OV-3 ovarian) | GI50 (SF-295 CNS) | TGI (SF-295 CNS) | GI50 (UACC-62 melanoma) | TGI (UACC-62 melanoma) | GI50 (SK-MEL-5 melanoma) | TGI (SK-MEL-5 melanoma) | GI50 (COLO 205 colon) | TGI (COLO 205 colon) | GI50 (RXF 393 renal) | TGI (RXF 393 renal)
Nc1ccccc1C#C/C=C\C#Cc1c(F)c(F)c(F)c(F)c1F | 26.3 µM | 88.9 µM | 32.7 µM | > 100 µM | 18700 nM | 42 µM | 41.8 µM | > 100 µM | 33900 nM | > 100 µM | 20300 nM | 46.6 µM | 12500 nM | 26 µM | 20000 nM | 45 µM | 18900 nM | 37.4 µM | 4740 nM | 22 µM
CCOC(=O)/C=C/C(=O)[C@H](CC(C)C)NC(=O)[C@H](Cc1ccccc1)NC(=O)OCc1ccccc1 | 13.8 µM | 27.1 µM | 10.9 µM | 67.9 µM | 2860 nM | 8.16 µM | 12.6 µM | 25.4 µM | 18600 nM | 32.6 µM | 16200 nM | 29.8 µM | 3990 nM | 16.5 µM | 16400 nM | 31.1 µM | 2460 nM | 5.83 µM | 2030 nM | 3.64 µM
O=C(Nc1ccccc1O)c1ccc(NS(=O)(=O)c2cccc3cccnc23)cc1 | 0.806 µM | 4.35 µM | 0.787 µM | 11.8 µM | 810 nM | 4.88 µM | 0.511 µM | 8.03 µM | 1320 nM | 6.17 µM | 1090 nM | 4.77 µM | 539 nM | 3.49 µM | 838 nM | 3.42 µM | 1060 nM | 4.01 µM | 1720 nM | 5.81 µM
CN1CCN(Cc2ccc3c(NNC(=O)c4ccccc4)nc4cc(F)ccc4n23)CC1 | 2.41 µM | > 70.6 µM | 5.73 µM | > 100 µM | 519 nM | 22.4 µM | 0.436 µM | > 25.8 µM | 371 nM | > 100 µM | 270 nM | 4.89 µM | 360 nM | 3.49 µM | 577 nM | 3.28 µM | 325 nM | 13.6 µM | 683 nM | 21.3 µM
Cc1c(C(N)=O)sc2c1c(=O)n(Cc1ccccc1)c1nnc(-c3ccc(Br)cc3)n21 | 5.73 µM | 18.7 µM | 5.2 µM | 54.9 µM | 2980 nM | 18.9 µM | 4.44 µM | 20.9 µM | 2970 nM | 16.3 µM | 1010 nM | 11.8 µM | 1780 nM | 8.46 µM | 1470 nM | 4.89 µM | 3120 nM | 15 µM | 1810 nM | 7.15 µM
Cc1cc(O)c(/C=N/C(=S)Nc2ccccc2)c(=O)o1 | – | > 100 µM | – | > 100 µM | – | > 100 µM | – | > 100 µM | – | > 100 µM | – | > 100 µM | – | > 100 µM | – | > 100 µM | – | > 100 µM | – | > 100 µM
